Measurements: patent US20080255162A1, “Pyrrolyl Substituted Pyrido[2,3-D]Pyrimidin-7-Ones and Derivatives Thereof as Therapeutic Agents” (WARNER-LAMBERT COMPANY LLC, priority 2004, published 2008)

Key:
[1] = biological target: T1, PI3Kγ (purified recombinant p101/p110γ protein) (Homo sapiens, UniProt P48736); test: PI3Kγ In Vitro Kinase Assay; type: biochemical; details: final ATP 20 μM, 25 μM PIP2, G protein β1/γ2 subunits, 20 minutes at room temperature
T1 construct: HA; made in house; host or cells: Spodoptera frugiperda Sf9 cells (baculovirus co-infection)
Method: Spodtera frugiperda cells, grown in ESF921 media, were co-infected with baculovirus expressing a glu-tagged p101 and baculovirus expressing an HA-tagged p110γ, at a 3:1 ratio of p101 baculovirus to p110γ baculovirus. Sf9 cells were grown to 1×10^7 total cells/mL in 10 L bioreactors and harvested 48-72 hours post infection. Samples of infected cells were then tested for expression of p101/p110γ PI3 kinase by immunoprecipitation and Western Blot analysis methods (see below).
To purify PI3Kγ, 4 volumes of room temperature hypotonic lysis buffer (1 mM MgCl2, 1 mM DTT, 5 mM EGTA, 1 mM Pefabloc, 0.5 μM aprotinin, 5 μM leupeptin, 2 μM pepstatin, 5 μM E64, pH 8) per gram of cell paste, was poured onto frozen cell pellets with stirring, then lysed in a nitrogen “bomb” at 400 psi (599HC T316, Parr Instrument Co, Moline, Ill.). NaCl was added to 150 mM, and sodium cholate was added to 1% and mixed for another 45 minutes. The lysates were clarified by centrifugation for 25 minutes at 14,000 rpm. The lysates were then loaded over anti-glu-linked Protein-G Sepaharose beads (Covance Research Products, Richmond, Calif.) using 20 mL resin/50 g cell paste. The column was washed with 15 volumes of wash buffer (1 mM DTT, 0.2 mM EGTA, 1 mM Pefabloc, 0.5 μM aprotinin, 5 μM leupeptin, 2 μM pepstatin, 5 μM E64, 150 mM NaCl, 1% sodium cholate, pH 8). PI3Kγ was eluted with 6 column volumes of wash buffer that contain 100 μg/mL of a peptide that competes for binding of the glu tag. The column fractions with the eluted protein (determined by taking OD280 readings) were collected and dialyzed in 0.2 mM EGTA, 1 mM DTT, 1 mM Pefabloc, 5 μM leupeptin, 0.5% sodium cholate, 150 mM NaCl, and 50% glycerol, pH 8. The fractions were stored at −80° C. until further use.
Spodtera frugiperda cells were coinfected with baculovirus expressing a glu-tagged G protein β1 and baculovirus expressing a G protein β2, at a 1:1 ratio of glu-tagged G protein β1 baculovirus to G protein β2 baculovirus. Sf9 cells are grown in 10 L bioreactors and harvested 48-72 hours post infection. Samples of infected cells were tested for G protein β1/β2 expression by Western Blot analysis, as described below. Cell lysates were homogenized and loaded onto a column of glu-tagged beads as in Biological Example 1 and competed off the column with a glu peptide and processed as described in Biological Example 1.
The inhibitory properties of the compounds in Table 1 were assayed in an in vitro PI3K assay. In a 96-well polypropylene plate, each well was spotted with 2 μL of 50 times the desired final concentration of compound in DMSO. Purified recombinant p101/p110γ protein (0.03 μg; ˜2.7 nM) and G protein β1/γ2 subunits (0.09 μg; ˜57.7 nM) for each reaction was combined in the assay buffer (30 mM HEPES, 100 mM NaCl, 1 mM EGTA, and 1 mM DTT). ATP and [γ-^32P-ATP] (0.09 μCi) were added to this mixture so that the final ATP concentration in the reaction was 20 μM. Lipid micelles were formed by sonicating phosphatidylinositol-4,5-diphosphate (PIP2), phosphatidylethanolamine (PE), and Na-cholate in the assay buffer for 10 minutes, adding MgCl2 and incubating on ice for 20 minutes, for final concentrations of 25 μM PIP2, 300 μM PE, 0.02% Na-cholate, and 10 mM MgCl2 in the reaction. The reactions were started by adding equal volumes lipid and enzyme mixture in a total volume of 50 μL, allowed to run for 20 minutes at room temperature, and stopped with 100 μL 75 mM H3PO4. The lipid product was transferred to a glass fiber filter plate and washed with 75 mM H3PO4 several times. The presence of radioactive lipid product (PIP3) was measured by adding Wallac Optiphase mix to each well and counting in a Wallac 1450 Trilux plate reader (PerkinElmer Life Sciences Inc., Boston, Mass. 02118). The IC50 for each compound tested is reported in μM in the Table 2: […]

[2] = biological target: CDK2/cyclin A (Homo sapiens, UniProt P24941); test: CDK2/cyclinA In Vitro Kinase Assay; type: biochemical; details: 10 μM of each compound; Histone H1 substrate; 0.02 mM ATP; activity as percentage of controls with DMSO alone, mean of duplicates
Method: The inhibitory properties of the compounds of Examples 19, 24, and 31 were assayed in an in vitro CDK2/cyclinA assay at 10 μM of each compound in DMSO. CDK2/cyclin A (5-20 mU diluted in 50 mM Hepes pH 7.5, 1 mM DTT, 0.02% Brij35, 100 mM NaCl) was assayed against Histone H1 in a final volume of 25.5 μl containing 50 mM Hepes pH7.5, 1 mM DTT, 0.02% Brij35, 100 mM NaCl, Histone H1 (1 mg/ml), 10 mM magnesium acetate and 0.02 mM [^33P-γ-ATP](500-1000 cpm/pmole) and incubated for 30 min at room temperature. Assays were stopped by addition of 5 μl of 0.5 M (3%) orthophosphoric acid and then harvested onto P81 Unifilter plates and washed with 50 mM orthophosphoric acid. The filter plates were then counted in a scintillation counter.
The results in Table 3 are expressed as percentage of controls with DMSO alone (mean of duplicates ±the standard deviation from the mean).

T1 sequence (P48736 whole entry, species assumed): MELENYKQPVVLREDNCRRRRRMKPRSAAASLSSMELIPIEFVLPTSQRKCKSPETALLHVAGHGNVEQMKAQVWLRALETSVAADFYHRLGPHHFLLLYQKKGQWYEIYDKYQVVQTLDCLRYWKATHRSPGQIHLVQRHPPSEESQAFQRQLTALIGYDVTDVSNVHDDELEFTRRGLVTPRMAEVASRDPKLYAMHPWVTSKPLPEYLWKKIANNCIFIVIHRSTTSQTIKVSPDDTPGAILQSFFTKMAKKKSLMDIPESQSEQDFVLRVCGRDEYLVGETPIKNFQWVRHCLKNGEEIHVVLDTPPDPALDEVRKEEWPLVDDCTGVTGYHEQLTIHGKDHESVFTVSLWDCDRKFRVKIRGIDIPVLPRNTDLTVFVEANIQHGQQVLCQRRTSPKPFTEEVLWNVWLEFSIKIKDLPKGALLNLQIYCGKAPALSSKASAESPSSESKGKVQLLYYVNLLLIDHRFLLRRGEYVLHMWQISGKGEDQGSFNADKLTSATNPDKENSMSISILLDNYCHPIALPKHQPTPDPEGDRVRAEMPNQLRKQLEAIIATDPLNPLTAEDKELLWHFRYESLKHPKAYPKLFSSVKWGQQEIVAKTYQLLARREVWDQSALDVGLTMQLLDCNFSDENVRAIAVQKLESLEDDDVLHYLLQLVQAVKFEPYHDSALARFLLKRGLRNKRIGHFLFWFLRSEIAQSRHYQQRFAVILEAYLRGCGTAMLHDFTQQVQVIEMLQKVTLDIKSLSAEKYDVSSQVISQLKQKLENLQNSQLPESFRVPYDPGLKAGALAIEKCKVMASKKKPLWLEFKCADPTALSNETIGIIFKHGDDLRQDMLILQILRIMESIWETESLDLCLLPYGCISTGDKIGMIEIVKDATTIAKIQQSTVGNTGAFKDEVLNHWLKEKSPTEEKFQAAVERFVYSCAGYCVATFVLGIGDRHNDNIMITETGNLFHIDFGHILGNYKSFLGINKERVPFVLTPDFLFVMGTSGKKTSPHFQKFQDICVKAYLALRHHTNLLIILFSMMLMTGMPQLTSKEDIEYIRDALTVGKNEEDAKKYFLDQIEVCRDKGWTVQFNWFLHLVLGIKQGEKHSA
T1 sequence (Q8WYR1 whole entry partner, species assumed): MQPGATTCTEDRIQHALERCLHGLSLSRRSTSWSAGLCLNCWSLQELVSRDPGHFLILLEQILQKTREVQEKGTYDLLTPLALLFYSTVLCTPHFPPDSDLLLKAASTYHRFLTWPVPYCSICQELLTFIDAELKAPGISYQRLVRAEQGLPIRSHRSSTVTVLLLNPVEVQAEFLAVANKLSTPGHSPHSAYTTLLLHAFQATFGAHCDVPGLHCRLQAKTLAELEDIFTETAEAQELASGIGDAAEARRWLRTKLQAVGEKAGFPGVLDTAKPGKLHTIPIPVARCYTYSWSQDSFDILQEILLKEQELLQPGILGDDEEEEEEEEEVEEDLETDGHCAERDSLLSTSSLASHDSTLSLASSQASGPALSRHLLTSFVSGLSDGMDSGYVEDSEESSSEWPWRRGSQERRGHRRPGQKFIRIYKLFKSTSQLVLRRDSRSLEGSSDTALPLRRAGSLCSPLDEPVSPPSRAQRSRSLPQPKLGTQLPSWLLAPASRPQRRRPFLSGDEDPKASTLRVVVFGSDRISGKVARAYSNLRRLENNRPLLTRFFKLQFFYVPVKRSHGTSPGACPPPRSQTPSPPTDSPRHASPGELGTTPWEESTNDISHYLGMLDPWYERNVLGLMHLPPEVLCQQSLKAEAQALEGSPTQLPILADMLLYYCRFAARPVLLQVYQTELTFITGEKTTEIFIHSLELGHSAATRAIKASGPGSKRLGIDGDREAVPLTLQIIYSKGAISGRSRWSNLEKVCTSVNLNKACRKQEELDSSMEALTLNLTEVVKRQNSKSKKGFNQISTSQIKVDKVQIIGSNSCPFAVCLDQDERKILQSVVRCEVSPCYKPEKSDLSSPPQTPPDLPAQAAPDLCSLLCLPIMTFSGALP

Cc1nc(Nc2cc(C(=O)O)n(C)c2)nc2c1ccc(=O)n2C1CCOCC1 [Example 19, 1-Methyl-4-[4-methyl-7-oxo-8-(tetrahydro-pyran-4-yl)-7,8-dihydro-pyrido[2,3-d]pyrimidin-2-ylamino]-1H-pyrrole-2-carboxylic acid]
IC50 [1]: 34 nM
% of DMSO control (mean ± S.D.) [2]: 101 ± 6%

Cc1nc(Nc2cc(C(=O)O)n(C)c2)nc2c1cc(F)c(=O)n2C1CCCC1 [Example 24, 4-(8-Cyclopentyl-6-fluoro-4-methyl-7-oxo-7,8-dihydro-pyrido[2,3-d]pyrimidin-2-ylamino)-1-methyl-1H-pyrrole-2-carboxylic acid]
IC50 [1]: 9 nM
% of DMSO control (mean ± S.D.) [2]: 85 ± 9%

CCOC(=O)c1cc(Nc2nc(C)c3cc(F)c(=O)n(C4CCCC4)c3n2)cn1C(C)c1ccccc1 (centres unmarked) [Example 13, 4-(8-Cyclopentyl-6-fluoro-4-methyl-7-oxo-7,8-dihydro-pyrido[2,3-d]pyrimidin-2-ylamino)-1-(1-phenyl-ethyl)-1H-pyrrole-2-carboxylic acid ethyl ester]
IC50 [1]: 160 nM

Cc1nc(Nc2cc(C(=O)O)n(C)c2)nc2c1ccc(=O)n2C1CCCCCC1 [Example 15, 4-(8-Cycloheptyl-4-methyl-7-oxo-7,8-dihydro-pyrido[2,3-d]pyrimidin-2-ylamino)-1-methyl-1H-pyrrole-2-carboxylic acid]
IC50 [1]: 33 nM

CCc1nc(Nc2cc(C(=O)O)n(C)c2)nc2c1ccc(=O)n2C1CCCCCC1 [Example 20, 4-(8-Cycloheptyl-4-ethyl-7-oxo-7,8-dihydro-pyrido[2,3-d]pyrimidin-2-ylamino)-1-methyl-1H-pyrrole-2-carboxylic acid]
IC50 [1]: 1600 nM

Cc1nc(Nc2cc(C(=O)O)n(C)c2)nc2c1cc(-c1cccc(OCc3ccccc3)c1)c(=O)n2Cc1ccc(F)cc1 [Example 35, 4-[6-(3-Benzyloxy-phenyl)-8-(4-fluoro-benzyl)-4-methyl-7-oxo-7,8-dihydro-pyrido[2,3-d]pyrimidin-2-ylamino]-1-methyl-1H-pyrrole-2-carboxylic acid]
IC50 [1]: 340 nM

Cc1nc(Nc2cc(C(=O)O)n(C(C)C)c2)nc2c1ccc(=O)n2C1CCCCCC1 [Example 22, 4-(8-Cycloheptyl-4-methyl-7-oxo-7,8-dihydro-pyrido[2,3-d]pyrimidin-2-ylamino)-1-isopropyl-1H-pyrrole-2-carboxylic acid]
IC50 [1]: 35 nM

COc1ccc(Cn2c(=O)c(Br)cc3c(C)nc(Nc4cc(C(=O)O)n(C)c4)nc32)cc1 [Example 33, 4-[6-Bromo-8-(4-methoxy-benzyl)-4-methyl-7-oxo-7,8-dihydro-pyrido[2,3-d]pyrimidin-2-ylamino]-1-methyl-1H-pyrrole-2-carboxylic acid]
IC50 [1]: 17 nM

CCn1c(=O)c(Cl)cc2c(C)nc(Nc3cc(C(=O)O)n(C)c3)nc21 [Example 31, 4-(6-Chloro-8-ethyl-4-methyl-7-oxo-7,8-dihydro-pyrido[2,3-d]pyrimidin-2-ylamino)-1-methyl-1H-pyrrole-2-carboxylic acid]
IC50 [1]: 5 nM
% of DMSO control (mean ± S.D.) [2]: 104 ± 1%

COC(=O)c1cc(Nc2nc(C)c3cc(F)c(=O)n(CC4CCOCC4)c3n2)cn1C [Example 10, 4-[6-Fluoro-4-methyl-7-oxo-8-(tetrahydro-pyran-4-ylmethyl)-7,8-dihydro-pyrido[2,3-d]pyrimidin-2-ylamino]-1-methyl-1H-pyrrole-2-carboxylic acid methyl ester]
IC50 [1]: 8 nM

Cc1nc(Nc2cc(C(=O)O)n(C(C)c3ccccc3)c2)nc2c1ccc(=O)n2C (centres unmarked) [Example 16, 4-(4,8-Dimethyl-7-oxo-7,8-dihydro-pyrido[2,3-d]pyrimidin-2-ylamino)-1-(1-phenyl-ethyl)-1H-pyrrole-2-carboxylic acid]
IC50 [1]: 148 nM

Cc1nc(Nc2cc(C(=O)O)n(C)c2)nc2c1cc(F)c(=O)n2CC1CCOCC1 [Example 26, 4-[6-Fluoro-4-methyl-7-oxo-8-(tetrahydro-pyran-4-ylmethyl)-7,8-dihydro-pyrido[2,3-d]pyrimidin-2-ylamino]-1-methyl-1H-pyrrole-2-carboxylic acid]
IC50 [1]: 25 nM

Cc1nc(Nc2cc(C(=O)O)n(C)c2)nc2c1ccc(=O)n2C1CC1 [Example 18, 4-(8-Cyclopropyl-4-methyl-7-oxo-7,8-dihydro-pyrido[2,3-d]pyrimidin-2-ylamino)-1-methyl-1H-pyrrole-2-carboxylic acid]
IC50 [1]: 185 nM

CCc1nc(Nc2cc(C(=O)OC)n(C)c2)nc2c1ccc(=O)n2C1CCCCCC1 [Example 14, 4-(8-Cycloheptyl-4-ethyl-7-oxo-7,8-dihydro-pyrido[2,3-d]pyrimidin-2-ylamino)-1-methyl-1H-pyrrole-2-carboxylic acid methyl ester]
IC50 [1]: 1440 nM
